The target of this experiment is Growth factor receptor-bound protein 2 (Homo sapiens, UniProt P62993). Nature of the experiment: Inhibition of Grb2-SH2 domain binding to phospho-EGF receptor intracellular C-terminal domain. The experiment is classed as cell-based.

Some results are limits rather than exact numbers.

Growth factor receptor-bound protein 2, sequence (P62993 whole entry, the tested form may be a part): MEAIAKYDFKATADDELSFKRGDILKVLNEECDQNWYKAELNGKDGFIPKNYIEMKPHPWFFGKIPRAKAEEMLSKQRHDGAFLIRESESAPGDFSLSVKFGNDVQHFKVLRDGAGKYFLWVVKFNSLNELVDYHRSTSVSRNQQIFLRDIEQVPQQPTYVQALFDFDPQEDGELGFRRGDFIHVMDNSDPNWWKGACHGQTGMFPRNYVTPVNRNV

Broadly, the IC50 is the concentration needed to halve the response being measured. Regarding `NC(=O)C[C@H](NC(=O)C1(NC(=O)[C@H](Cc2ccc(OP(=O)(O)O)cc2)NC(=O)OCc2cccc(N)c2)CCCCC1)C(N)=O`, the IC50 was 1 nM.
The result for `NC(=O)[C@@H]1CCC=C[C@@H]1NC(=O)C1(NC(=O)[C@H](Cc2ccc(OP(=O)(O)O)cc2)NC(=O)OCc2cccc(N)c2)CCCCC1` reads above 5000 nM.
